The test deals with Ba/F3 ETV6-NTRK2-G639R cells. Briefly: Proliferation of Ba/F3 ETV6-NTRK2-G639R cells (CellTiter-Glo). The class given is cell-based. The conditions noted are these: Mus musculus, BaF3; Table 6; 72 hours. The text has this:
Ba/F3 ETV6-NTRK2-G639R is a stable transgenic cell line constructed by KYinno Biotechnology Co., Ltd. on mouse primary B cell Ba/F3 wherein NTRK2 is highly expressed with a mutation of G at position 639 to R, and fused with ETV6 to form ETV6-NTRK2. • [Test method]: Promega's CellTiter-Glo® Luminescent Cell Viability Assay kit was used to evaluate the inhibitory activity of the compounds on the proliferation of Ba/F3 ETV6-NTRK2-G639R cells. • [Instrument]: Spectramax M3 multifunctional microplate reader from Molecular Devices. • [Test materials]: Ba/F3 ETV6-NTRK2-G639R cell line (constructed by KYinno Biotechnology Co., Ltd. (Beijing)), 96-well transparent flat-bottomed black-walled cell culture plate (Corning, catalog #3603), RPMI-1640 media (GE, cat #SH30027.01), fetal bovine serum FBS (Thermo Fisher, cat #10099-141), CellTiter-Glo® Luminescent Cell Viability Assay kit (Promega, cat #G7572), PBS (Solarbio, cat #P1020), DMSO (Sigma, cat #D2650). • [Experimental procedure]: When resuscitating Ba/F3 ETV6-NTRK2-G639R cells, the freezing tube was quickly shaken in a 37° C. water bath to melt within 1 minute. The thawed cell suspension was mixed uniformly with RPMI1640 medium containing 10% FBS, centrifuged at 1000 rpm for 5 minutes, and the supernatant discarded. 5 mL of complete medium (RPMI1640 medium with 10% FBS) was taken to resuspend the cell pellets, charged into a cell culture flask with a bottom area of 25 cm^2, and incubated in a cell incubator at 37° C., 95% humidity and 5% CO2. Cells were allowed to passage when the number of cells reached about 10^6 cells/mL. For cell passage, the old cell suspension was directly pipetted evenly, 1/5 of the cell suspension was kept, 4 mL of new complete medium was added, after pipetting evenly, the cell flask was placed in the cell incubator for further culturing. Cell plating was performed when the number of cells reached about 10^6 cells/mL again. For cell plating, 1/5 of the cell suspension was kept for further culturing as in the cell passage method, and the remaining 4/5 of the cell suspension was placed in a 15 mL centrifuge tube, detected for cell viability by Trypan blue exclusion method to ensure that cell viability was above 90%. A cell suspension with a density of 5.56×10^4 viable cells/mL was prepared with complete medium, and 90 μL of such cell suspension was added to a 96-well cell culture plate to obtain the cell density of 5000 viable cells/mL in the cell culture plate. A control group containing no cells, no compound and only complete medium (i.e. culture medium control) and a control group containing no compound but containing cells (i.e. cell control) were set. The cell plate was placed in a cell incubator overnight. The 10 mM compound stock solution in DMSO was first serially diluted with DMSO at a dilution factor of 3.16 times, to obtain 9 concentrations, and the 10th concentration was set as DMSO control without compound. Then, PBS was used to dilute the DMSO solutions of compounds of different concentrations, at a dilution factor of 100 times, so that the DMSO concentration in the compound solution of each concentration was 1%. Finally, 10 μL of each of the above solutions was added to the corresponding cell culture plate, so that the initial compound concentration was 10 μM, with the remaining concentrations being successively diluted at a dilution factor of 3.16 times, and the DMSO content in the cell culture plate was 0.1%. The cell plate was placed in a cell incubator and cultured for 72 hours. For endpoint detection, the CellTiter-Glo reagent was melted, and the cell plate was moved to room temperature to equilibrate for 30 minutes, added with 100 μL of CellTiter-Glo for each well, and shaken on an orbital shaker for 5 minutes to fully lyse the cells. The plate was kept at room temperature for 20 minutes to stabilize the luminescence signal, and the luminescence value of each well was scanned with a multi-functional microplate reader at full wavelength. • [Test samples] […]
A general note: ATP-based viability assays read luminescence as a measure of living cells.

One may read the IC50 as the concentration that gives 50% inhibition.

The molecule `Cn1ncc2cc(Oc3ccc(NC(=O)c4ccc(C(F)(F)F)n(-c5ccc(F)cc5)c4=O)cc3F)c(-c3cn[nH]c3)cc21` [Example 1, N-(3-fluoro-4-(1-methyl-6-(1H-pyrazol-4-yl)-1H-indazol-5-yloxy)phenyl)-1-(4-fluorophenyl)-6-trifluoromethyl-2-oxo-1,2-dihydmpyridine-3-carboxamide monomethanesulfonate] displayed an IC50 of 3.12 µM.
Molecule `Cn1ncc2cc(Oc3ccc(NC(=O)c4ccc(C5CC5)n(-c5ccc(F)cc5)c4=O)cc3F)c(-c3cn[nH]c3)cc21` [Example 2, N-(3-fluoro-4-(1-methyl-6-(1H-pyrazol-4-yl)-1H-indazol-5-yloxy)phenyl)-1-(4-fluorophenyl)-6-cyclopropyl-2-oxo-1,2-dihydmpyridine-3-carboxamide] had an IC50 of 1.88 µM.
The molecule `CCn1ncc2cc(Oc3ccc(NC(=O)c4ccc(C)n(-c5ccc(F)cc5)c4=O)cc3F)c(-c3cn[nH]c3)cc21` [Example 3, N-(3-fluoro-4-(1-ethyl-6-(1H-pyrazol-4-yl)-1H-indazol-5-yloxy)phenyl)-1-(4-fluorophenyl)-6-methyl-2-oxo-1,2-dihydmpyridine-3-carboxamide] had an IC50 of 9.87 µM.
In the case of `Cc1ccc(C(=O)Nc2ccc(Oc3cc4cnn(C(C)C)c4cc3-c3cn[nH]c3)c(F)c2)c(=O)n1-c1ccc(F)cc1` [Example 4, N-(3-fluoro-4-(1-isopropyl-6-(1H-pyrazol-4-yl)-1H-indazol-5-yloxy)phenyl)-1-(4-fluorophenyl)-6-methyl-2-oxo-1,2-dihydmpyridine-3-carboxamide], the IC50 was more than 10 µM.
As for `CCc1ccc(C(=O)Nc2ccc(Oc3cc4cnn(C)c4cc3-c3cn[nH]c3)c(F)c2)c(=O)n1-c1ccc(F)cc1` [Example 5, N-(3-fluoro-4-(1-methyl-6-(1H-pyrazol-4-yl)-1H-indazol-5-yloxy)phenyl)-1-(4-fluorophenyl)-6-ethyl-2-oxo-1,2-dihydropyridine-3-carboxamide], the midpoint of inhibition, the IC50, lay at 2.69 µM.
`CC(C)c1ccc(C(=O)Nc2ccc(Oc3cc4cnn(C)c4cc3-c3cn[nH]c3)c(F)c2)c(=O)n1-c1ccc(F)cc1` [Example 6, N-(3-fluoro-4-(1-methyl-6-(1H-pyrazol-4-yl)-1H-indazol-5-yloxy)phenyl)-1-(4-fluorophenyl)-6-isopropyl-2-oxo-1,2-dihydropyridine-3-carboxamide] gave an IC50 of 2.79 µM.
Regarding `O=C(Nc1cnn2ccc(N3CCC[C@@H]3c3cc(F)ccc3F)nc12)N1CC[C@H](O)C1` [LOXO-101, Larotrectinib, reference compound], the IC50 was more than 10 µM.
Next, `Cc1ccc(C(=O)Nc2ccc(Oc3cc4cnn(C)c4cc3-c3cn[nH]c3)c(F)c2)c(=O)n1-c1ccc(F)cc1` [Merestinib, reference compound]: 3.04 µM.

The values above are taken from US11952364B2, “TRK inhibitors useful as anticancer drugs” (TYLIGAND BIOSCIENCE (SHANGHAI) LIMITED, priority 2018, dated 2024).
